Measurements: patent publication US20130281467A1, “NOVEL MICROBICIDES” (SYNGENTA PARTICIPATIONS AG, priority 2010, published 2013)

Experiments:
[1] = test system: Blumeria graminis f. Sp. tritici (Erysiphe graminis f. sp. tritici); test: Fungicidal activity against Blumeria graminis f. sp. tritici / wheat / leaf disc preventative (powdery mildew on wheat); format: in vivo; settings: foliar, wheat leaf segments, inoculated 1 day after application, compared to untreated, read-out: disease control
Procedure: Fungicidal Activity Against Blumeria graminis f. Sp. tritici (Erysiphe graminis f. sp. tritici)/Wheat/Leaf Disc Preventative (Powdery Mildew on Wheat)
Wheat leaf segments cv. Kanzler were placed on agar in a multiwell plate (24-well format) and sprayed with the formulated test compound diluted in water. The leaf disks were inoculated by shaking powdery mildew infected plants above the test plates 1 day after application. The inoculated leaf disks were incubated at 20° C. and 60% rh under a light regime of 24 h darkness followed by 12 h light/12 h darkness in a climate chamber and the activity of a compound was assessed as percent disease control compared to untreated when an appropriate level of disease damage appears on untreated check leaf segments (6-8 days after application).

[2] = test system: Botryotinia fuckeliana (Botrytis cinerea); test: Fungicidal activity against Botryotinia fuckeliana (Botrytis cinerea) / liquid culture (gray mould); format: cell-based; settings: 3-4 days after application, read-out: disease control (inhibition of growth, photometrically)
Procedure: Fungicidal Activity Against Botryotinia fuckeliana (Botrytis cinerea)/Liquid Culture (Gray Mould) Conidia of the fungus from cryogenic storage were directly mixed into nutrient broth (Vogels broth). After placing a (DMSO) solution of test compound into a microtiter plate (96-well format), the nutrient broth containing the fungal spores was added. The test plates were incubated at 24° C. and the inhibition of growth was determined photometrically 3-4 days after application.

[3] = test system: Gaeumannomyces graminis; test: Fungicidal activity against Gaeumannomyces graminis / liquid culture (take-all of cereals); format: cell-based; settings: 4-5 days after application, read-out: disease control (inhibition of growth, photometrically)
Procedure: (§1) Fungicidal Activity Against Gaeumannomyces graminis/Liquid Culture (Take-all of Cereals) Mycelial fragments of the fungus from cryogenic storage were directly mixed into nutrient broth (PDB potato dextrose broth). After placing a (DMSO) solution of test compound into a microtiter plate (96-well format), the nutrient broth containing the fungal spores iss added. The test plates were incubated at 24° C. and the inhibition of growth was determined photometrically 4-5 days after application.

[4] = test system: Glomerella lagenarium (Colletotrichum lagenarium); test: Fungicidal activity against Glomerella lagenarium (Colletotrichum lagenarium) / liquid culture (anthracnose); format: cell-based; settings: Colletotrichum orbiculare, 3-4 days after application, read-out: disease control (inhibition of growth, photometrically)
Procedure: as §1, with “Glomerella lagenarium (Colletotrichum lagenarium)/Liquid” for “Gaeumannomyces graminis/Liquid”, “(Anthracnose) Conidia” for “(Take-all of Cereals) Mycelial fragments”, “was” for “iss”, “measured” for “determined”, “3-4” for “4-5”

[5] = test system: Monographella nivalis (Microdochium nivale); test: Fungicidal activity against Monographella nivalis (Microdochium nivale) / liquid culture (foot rot cereals); format: cell-based; settings: 4-5 days after application, read-out: disease control (inhibition of growth, photometrically)
Procedure: as §1, with “Monographella nivalis (Microdochium nivale)/Liquid” for “Gaeumannomyces graminis/Liquid”, “(Foot Rot” for “(Take-all of”, “Conidia” for “Mycelial fragments”, “was” for “iss”

[6] = test system: Mycosphaerella arachidis (Cercospora arachidicola); test: Fungicidal activity against Mycosphaerella arachidis (Cercospora arachidicola) / liquid culture (early leaf spot); format: cell-based; settings: 4-5 days after application, read-out: disease control (inhibition of growth, photometrically)
Procedure: as §1, with “Mycosphaerella arachidis (Cercospora arachidicola)/Liquid” for “Gaeumannomyces graminis/Liquid”, “(Early Leaf Spot) Conidia” for “(Take-all of Cereals) Mycelial fragments”, “was” for “iss”

[7] = test system: Mycosphaerella graminicola (Septoria tritici); test: Fungicidal activity against Mycosphaerella graminicola (Septoria tritici) / liquid culture (Septoria blotch); format: cell-based; settings: Zymoseptoria tritici, 4-5 days after application, read-out: disease control (inhibition of growth, photometrically)
Procedure: as §1, with “Mycosphaerella graminicola (Septoria tritici)/Liquid” for “Gaeumannomyces graminis/Liquid”, “(Septoria Blotch) Conidia” for “(Take-all of Cereals) Mycelial fragments”, “was” for “iss”

[8] = test system: Phaeosphaeria nodorum (Septoria nodorum); test: Fungicidal activity against Phaeosphaeria nodorum (Septoria nodorum) / wheat / leaf disc preventative (glume blotch); format: in vivo; settings: Parastagonospora nodorum, foliar, wheat leaf segments, inoculated 2 days after application, compared to untreated, read-out: disease control
Procedure: Fungicidal Activity Against Phaeosphaeria nodorum (Septoria nodorum)/Wheat/Leaf Disc Preventative (Glume Blotch) Wheat leaf segments cv. Kanzler were placed on agar in a multiwell plate (24-well format) and sprayed with the formulated test compound diluted in water. The leaf disks were inoculated with a spore suspension of the fungus 2 days after application. The inoculated test leaf disks were incubated at 20° C. and 75% rh under a light regime of 12 h light/12 h darkness in a climate cabinet and the activity of a compound was assessed as percent disease control compared to untreated when an appropriate level of disease damage appears in untreated check leaf disks (5-7 days after application).

[9] = test system: Puccinia recondita f. sp. tritici; test: Fungicidal activity against Puccinia recondita f. sp. tritici / wheat / leaf disc preventative (brown rust); format: in vivo; settings: foliar, wheat leaf segments, inoculated 1 day after application, compared to untreated, read-out: disease control
Procedure: Fungicidal Activity Against Puccinia recondita f. sp. tritici/Wheat/Leaf Disc Preventative (Brown Rust) Wheat leaf segments cv. Kanzler were placed on agar in multiwell plates (24-well format) and sprayed with the formulated test compound diluted in water. The leaf disks were inoculated with a spore suspension of the fungus 1 day after application. The inoculated leaf segments were incubated at 19° C. and 75% rh under a light regime of 12 h light/12 h darkness in a climate cabinet and the activity of a compound was assessed as percent disease control compared to untreated when an appropriate level of disease damage appears in untreated check leaf segments (7-9 days after application).

[10] = test system: Pyrenophora teres; test: Fungicidal activity against Pyrenophora teres / barley / leaf disc preventative (net blotch); format: in vivo; settings: foliar, barley leaf segments, inoculated 2 days after application, compared to untreated, read-out: disease control
Procedure: Fungicidal Activity Against Pyrenophora teres/Barley/Leaf Disc Preventative (Net Blotch) Barley leaf segments cv. Hasso were placed on agar in a multiwell plate (24-well format) and sprayed with the formulated test compound diluted in water. The leaf segments were inoculated with a spore suspension of the fungus 2 days after application. The inoculated leaf segments were incubated at 20° C. and 65% rh under a light regime of 12 h light/12 h darkness in a climate cabinet and the activity of a compound was assessed as disease control compared to untreated when an appropriate level of disease damage appears in untreated check leaf segments (5-7 days after application).

[11] = test system: Thanatephorus cucumeris (Rhizoctonia solani); test: Fungicidal activity against Thanatephorus cucumeris (Rhizoctonia solani) / liquid culture (foot rot, damping-off); format: cell-based; settings: 3-4 days after application, read-out: disease control (inhibition of growth, photometrically)
Procedure: Fungicidal Activity Against Thanatephorus cucumeris (Rhizoctonia solani)/Liquid Culture (Foot Rot, Damping-Off) Mycelia fragments of a newly grown liquid culture of the fungus were directly mixed into nutrient broth (PDB potato dextrose broth). After placing a (DMSO) solution of the test compounds into a microtiter plate (96-well format), the nutrient broth containing the fungal material was added. The test plates were incubated at 24° C. and the inhibition of growth was determined photometrically 3-4 days after application.

[12] = test system: Alternaria solani; test: Fungicidal activity against Alternaria solani / tomato / leaf disc (early blight); format: in vivo; settings: foliar, tomato leaf disks, inoculated 2 days after application, compared to untreated, read-out: disease control
Procedure: Fungicidal Activity Against Alternaria solani/Tomato/Leaf Disc (Early Blight) Tomato leaf disks cv. Baby were placed on agar in multiwell plates (24-well format) and sprayed with the formulated test compound diluted in water. The leaf disks were inoculated with a spore suspension of the fungus 2 days after application. The inoculated leaf disks were incubated at 23° C./21° C.

Row | Compound | melting point [°C] | pest or weed control at 200 ppm [1] [%] | inhibition at 200 ppm [2] [%] | inhibition at 200 ppm [3] [%] | inhibition at 200 ppm [4] [%] | inhibition at 200 ppm [5] [%] | inhibition at 200 ppm [6] [%] | inhibition at 200 ppm [7] [%] | pest or weed control at 200 ppm [8] [%] | pest or weed control at 200 ppm [9] [%] | pest or weed control at 200 ppm [10] [%] | inhibition at 200 ppm [11] [%] | pest or weed control at 200 ppm [12] [%]
1 | Clc1ccc(Cc2cccc(-c3ncc4c(n3)CCCC4)n2)cn1 [Compound 1, 2-[6-(6-chloropyridin-3-ylmethyl)-pyridin-2-yl]-5,6,7,8-tetrahydroquinazoline] | 115 to 120 | ≥ 80 | ≥ 80 | ≥ 80 | ≥ 80 | ≥ 80 | ≥ 80 | ≥ 80 | ≥ 80 | ≥ 80 | ≥ 80 | ≥ 80 | –
2 | c1ccc(Cc2cccc(-c3ncc4c(n3)CCOC4)n2)cc1 [Compound 2] | 244 to 245 | ≥ 80 | ≥ 80 | ≥ 80 | ≥ 80 | – | ≥ 80 | ≥ 80 | ≥ 80 | ≥ 80 | ≥ 80 | ≥ 80 | –
3 | Clc1cccc(Cc2cccc(-c3ncc4c(n3)CCOC4)n2)c1 [Compound 4] | 148 to 149 | ≥ 80 | ≥ 80 | ≥ 80 | ≥ 80 | ≥ 80 | ≥ 80 | ≥ 80 | ≥ 80 | ≥ 80 | ≥ 80 | ≥ 80 | –
4 | CO[C@@H]1CCc2nc(-c3cccc(Cc4ccccc4)n3)ncc2C1 [Compound 25] | – | ≥ 80 | ≥ 80 | – | ≥ 80 | ≥ 80 | ≥ 80 | ≥ 80 | ≥ 80 | ≥ 80 | ≥ 80 | – | ≥ 80

Further lines, with some results ahead:

Row | melting point [°C] | Compound | pest or weed control at 200 ppm [1] [%] | inhibition at 200 ppm [2] [%] | inhibition at 200 ppm [3] [%] | inhibition at 200 ppm [4] [%] | inhibition at 200 ppm [5] [%] | inhibition at 200 ppm [6] [%] | inhibition at 200 ppm [7] [%] | pest or weed control at 200 ppm [8] [%] | pest or weed control at 200 ppm [9] [%] | pest or weed control at 200 ppm [10] [%] | inhibition at 200 ppm [11] [%] | pest or weed control at 200 ppm [12] [%]
5 | 226 to 228 | CC1(C)CCc2cnc(-c3cccc(Cc4ccccc4)n3)nc2C1 [Compound 11] | ≥ 80 | ≥ 80 | ≥ 80 | ≥ 80 | ≥ 80 | ≥ 80 | ≥ 80 | ≥ 80 | ≥ 80 | ≥ 80 | ≥ 80 | –
6 | 222 to 223 | CC1(C)CCc2cnc(-c3cccc(Cc4cccc(C#N)c4)n3)nc2C1 [Compound 17] | – | ≥ 80 | ≥ 80 | ≥ 80 | ≥ 80 | ≥ 80 | ≥ 80 | ≥ 80 | – | ≥ 80 | ≥ 80 | –
7 | 175 to 177 | CO/N=C1\CCc2nc(-c3cccc(Cc4ccccc4)n3)ncc2C1 [Compound 18] | ≥ 80 | ≥ 80 | ≥ 80 | ≥ 80 | – | ≥ 80 | ≥ 80 | ≥ 80 | ≥ 80 | ≥ 80 | ≥ 80 | –
8 | 136 to 138 | CC(c1ccccc1)c1cccc(-c2ncc3c(n2)CC(C)(C)CC3)n1 (stereo not shown) [Compound 45] | – | ≥ 80 | ≥ 80 | ≥ 80 | ≥ 80 | ≥ 80 | ≥ 80 | ≥ 80 | – | ≥ 80 | ≥ 80 | –
